# Measurements reported in US20230381142A1, “ANTILEISHMANIAL COMPOUNDS, COMPOSITIONS AND USE THEREOF” (TRUSTEES OF BOSTON UNIVERSITY, priority 2022, published 2023).
# Where two headings read alike, the source gives them in different places.
# How the values were obtained:
# [1] = tested on: L. donovani intracellular amastigotes in B10R cells; assay: UCSD L. donovani infection assay (Assay Conditions D); format: cell-based; settings: B10R cells; for L. donovani amastigotes EC75 (B10R cells): footnote d
# In short: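 Compounds, either single-point at 10 μM or 10-point 2-fold series (3 technical, 2 biological replicates), were incubated 72 h at 37° C. with B10R host cells co-seeded with day-7 stationary L. donovani promastigotes (20:1). DAPI-stained nuclei imaging yielded intracellular parasite EC50 and host-cell CC50.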
# [2] = tested on: L. braziliensis (strain BA788) in J774 cells; assay: J774 luciferase infection assay (Assay Conditions E); format: cell-based, Leishmania braziliensis
# Protocol: Assay Conditions E: J774 cells (ATCC J774A.1 were grown in DMEM supplemented with 10% Fetal Bovine Serum (FBS) and 1% Penicillin-Streptomycin at 37° C. in 5% CO2. Leishmania parasites expressing luciferase and GFP were grown as described in Front. Cell. Infect. Microbiol (2019) 9:237. J774 cells were seeded in microwell plates at 3×10^5 cells/mL density. Cells were washed with PBS and incubated with complete DMEM medium containing stationary phase Leishmania promastigotes (L. major: strain Friedlin; L. braziliensis, strain BA788) at a 1:10 parasite-cell ratio for 24 h. Cells were washed with PBS. Cells and compounds were incubated for 48 h at 37° C. and 5% C02. Compounds were tested in 8-point 2-fold serial dilution in 4 technical replicates, and 2 biological replicates. After 48 h, OneTiterGlo (Promega) (100 μl) was added to each well. Plates were incubated for 15 min and bioluminescence was measured using a plate reader (Molecular Devices). Effective concentration inducing 75% activity (EC75) was calculated using GraphPad Prism Software (version 9.0).
# [3] = tested on: L. donovani intracellular amastigotes infecting THP-1 macrophages; assay: GSK intramacrophage L. donovani assay (LD AMMAC, inMac; Assay Conditions C); format: cell-based; settings: Leishmania donovani
# In short: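 EC50 values come from counting amastigotes per infected THP-1 macrophage (AMMAC). Parallel read-outs give percentage of infected cells per well (INFCELL) and a macrophage-number toxicity EC50 (MAC).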
# [4] = UCSD infection assay, host cell cytotoxicity (CC50); format: cell-based; settings: mouse, B10R host cells infected with L. donovani
# Protocol: (§1) Assay Conditions D: B10R cells (CVCL_0155) were seeded at 300 cells/well, and L. donovani WT promastigotes in stationary phase (7th day after passage) were added at 6,000 parasites/well (ratio of 20 parasites/cell). Both cells and parasites were seeded in DMEM High-Glucose medium (Gibco, cat. no. 11995065) containing 5% Fetal Bovine Serum (Sigma-Aldrich, cat. no. F2442) and 1% Penicillin-Streptomycin (Gibco, cat. no. 15140122). Cells and parasites were incubated in the presence of the compounds for 72 h at 37° C. and 5% C02. Plates were then fixed with 4% formaldehyde solution for at least 1 h, then washed with 1×PBS and stained with 5 μg/mL DAPI. Plates were read using an ImageXpress microscope (Molecular Devices) and analyzed by MetaXpress software (Molecular Devices) using a custom module optimized for this assay. […] Compounds were tested in a 10-point 2-fold serial dilution in 3 technical replicates, and 2 biological replicates. After 72 h, plates were fixed and stained with DAPI as described above. Images were acquired on an ImageXpress microscope, and analyzed using the MetaXpress custom module.
# as §1, with “Compounds were obtained as 0.2 μmoles of dried film for primary single point screening. Each compound was diluted in DMSO to 10 μM final testing concentration. These compounds were tested in 2 biological replicates. The compounds were pre-spotted onto 384-well assay plates in single concentration.” for “Assay Conditions D:”, “CO2.” for “C02.”, “module. The DRCs were plotted, half-effective concentration (EC50) and half-cytotoxic concentration (CC50) were calculated using GraphPad Prism Software, version 6.05 (GraphPad Software, San Diego, CA).” for “module.”
# [5] = GSK inMac assay, host cell toxicity readout (LD MAC); format: cell-based, human; settings: human
# In short: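 MAC EC50 reflects THP-1 host cell counts, measured within GSK's inMac L. donovani infection assay that also scores intracellular amastigotes and infected-cell percentage.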
# [6] = THP-1 cells, values marked c, read-out: L. donovani amastigotes EC50 (THP-1 cells)
# [7] = footnote c, read-out: THP-1 Host Cell CC50
# [8] = values marked c: THP-1 cells, read-out: L. donovani amastigotes EC50 (μM, THP-1 or B10R cells)
structure (smiles),measurement,setting,value
CC(C)Cc1n[nH]c2c1C(c1ccc(Br)cc1F)N(c1ccc(F)nc1)C2=O (centres unmarked) [BUCMD00649],"L. donovani amastigotes EC75 (μM, B10R cells)",[1],>10 µM
same,"L. braziliensis amastigotes EC75 (μM, J774 cells)",[2],>10 µM
CC(C)Cc1n[nH]c2c1C(c1ccc(F)cc1Br)N(c1ccc(F)nc1)C2=O (centres unmarked) [BUCMD00650],"L. donovani amastigotes EC75 (μM, B10R cells)",[1],>10 µM
same,"L. braziliensis amastigotes EC75 (μM, J774 cells)",[2],9.0 µM
Cc1ccccc1C1c2c(CC(C)C)n[nH]c2C(=O)N1c1ccc(F)nc1 (centres unmarked) [BUCMD00651],"L. donovani amastigotes EC75 (μM, B10R cells)",[1],6.3 µM
same,"L. braziliensis amastigotes EC75 (μM, J774 cells)",[2],>10 µM
Cc1cc(F)ccc1C1c2c(CC(C)C)n[nH]c2C(=O)N1c1cnn(C(C)C)c1 (centres unmarked) [BUCMD00673],"L. donovani amastigotes EC75 (μM, B10R cells)",[1],>10 µM
same,"L. braziliensis amastigotes EC75 (μM, J774 cells)",[2],>10 µM
COc1ccc(N2C(=O)c3[nH]nc(CC(C)C)c3C2c2ccc(F)cc2Cl)cn1 (centres unmarked) [BUCMD00684],"L. donovani amastigotes EC75 (μM, B10R cells)",[1],>10 µM
same,"L. braziliensis amastigotes EC75 (μM, J774 cells)",[2],10.0 µM
COc1ccc(N2C(=O)c3[nH]nc(CC(C)C)c3C2c2ccc(Cl)cc2F)cn1 (centres unmarked) [BUCMD00685],"L. donovani amastigotes EC75 (μM, B10R cells)",[1],1.7 µM
same,"L. braziliensis amastigotes EC75 (μM, J774 cells)",[2],>10 µM
COc1ccc(N2C(=O)c3[nH]nc(CC(C)C)c3C2c2ccccc2C)cn1 (centres unmarked) [BUCMD00687],"L. donovani amastigotes EC75 (μM, B10R cells)",[1],>10 µM
same,"L. braziliensis amastigotes EC75 (μM, J774 cells)",[2],>10 µM
COc1ccc(N2C(=O)c3[nH]nc(CC(C)C)c3C2c2ccc(F)cc2F)cn1 (centres unmarked) [BUCMD00688],"L. donovani amastigotes EC75 (μM, B10R cells)",[1],3.3 µM
same,"L. braziliensis amastigotes EC75 (μM, J774 cells)",[2],>10 µM
COc1ccc(N2C(=O)c3[nH]nc(CC(C)C)c3C2c2ccccc2C(F)(F)F)cn1 (centres unmarked) [BUCMD00689],"L. donovani amastigotes EC75 (μM, B10R cells)",[1],>10 µM
same,"L. braziliensis amastigotes EC75 (μM, J774 cells)",[2],>10 µM
COc1ccc(N2C(=O)c3[nH]nc(CC(C)C)c3C2c2sccc2C)cn1 (centres unmarked) [BUCMD00690],"L. donovani amastigotes EC75 (μM, B10R cells)",[1],9.7 µM
same,"L. braziliensis amastigotes EC75 (μM, J774 cells)",[2],>10 µM
COc1ccc(N2C(=O)c3[nH]nc(CC(C)C)c3[C@@H]2c2cccc(C(F)(F)F)c2)cn1 [BUCMD00805],EC50,[3]; [6],5 µM
same,CC50 at 72 h,[4]; footnote d,6.31 µM
same,L. donovani amastigotes EC75 (B10R cells),[1],1.6 µM
same,CC50,[5]; [7],25.1 µM
COc1ccc(N2C(=O)c3[nH]nc(CC(C)C)c3[C@H]2c2ccccc2Br)cn1 [CMLD010977],EC50,[3]; [8],2 µM
same,CC50 at 72 h,[4]; host B10R cells,15.8 µM
same,"L. donovani amastigotes EC75 (μM, B10R cells)",[1],1.0 µM
same,CC50,[5]; host THP-1 cells,25.1 µM
CC(C)Cc1n[nH]c2c1C(c1ccc(F)cc1)N(c1ccc(N(C)C)cc1)C2=O (centres unmarked) [CMLD011039],EC50,[3]; [6],1 µM
same,CC50 at 72 h,[4]; footnote d,6.31 µM
same,L. donovani amastigotes EC75 (B10R cells),[1],0.3 µM
same,CC50,[5]; [7],39.8 µM
CC(C)Cc1n[nH]c2c1C(c1ccc(F)cc1)N(c1ccc3c(c1)OCCO3)C2=O (centres unmarked) [CMLD011101],EC50,[3]; [6],3.2 µM
same,CC50 at 72 h,[4]; footnote d,15.8 µM
same,L. donovani amastigotes EC75 (B10R cells),[1],1.2 µM
same,CC50,[5]; [7],25.1 µM
COc1ccc(N2C(=O)c3[nH]nc(CC(C)C)c3C2c2ccc(C)s2)cc1 (centres unmarked) [CMLD011123],EC50,[3]; [8],5 µM
same,CC50 at 72 h,[4]; host B10R cells,15.8 µM
same,"L. donovani amastigotes EC75 (μM, B10R cells)",[1],2.5 µM
same,CC50,[5]; host THP-1 cells,20 µM
CC(C)Cc1n[nH]c2c1C(c1cccc(C(F)(F)F)c1)N(c1ccc3c(c1)OCO3)C2=O (centres unmarked) [CMLD011139],EC50,[3]; [8],3.2 µM
same,CC50 at 72 h,[4]; host B10R cells,12.6 µM
same,"L. donovani amastigotes EC75 (μM, B10R cells)",[1],>10 µM
same,CC50,[5]; host THP-1 cells,20 µM
CC(C)Cc1n[nH]c2c1C(c1ccccc1Br)N(c1ccc3c(c1)OCC(=O)N3)C2=O (centres unmarked) [CMLD011497],EC50,[3]; [8],2 µM
same,CC50 at 72 h,[4]; host B10R cells,6.31 µM
same,"L. donovani amastigotes EC75 (μM, B10R cells)",[1],0.9 µM
same,CC50,[5]; host THP-1 cells,20 µM
CC(C)Cc1n[nH]c2c1C(c1c(Cl)cccc1Cl)N(c1ccc(N(C)C)cc1)C2=O (centres unmarked) [CMLD011553],EC50,[3]; [8],4 µM
same,CC50 at 72 h,[4]; host B10R cells,5.01 µM
same,"L. donovani amastigotes EC75 (μM, B10R cells)",[1],3.0 µM
same,CC50,[5]; host THP-1 cells,20 µM
COc1ccc(N2C(=O)c3[nH]nc(CC(C)C)c3[C@H]2c2ccc(F)cc2)cc1 [CMLD013629],EC50,[3]; [8],10 µM
same,CC50 at 72 h,[4]; host B10R cells,20 µM
same,"L. donovani amastigotes EC75 (μM, B10R cells)",[1],>10 µM
same,CC50,[5]; host THP-1 cells,25.1 µM
